Measured values reported in patent US6794386B2, “β-amino acid compounds as integrin antagonists” (Bayer Aktiengesellschaft, priority 2000, dated 2004).

Target: T1, VLA-4 (Homo sapiens, UniProt P05556+P13612)
T1 construct: host or cells: Jurkat clone E6-1
Experiment: Adhesion of Jurkat cells to immobilized VCAM-1 (domains 1-3)
Format: cell-based
Conditions: adhesion of CFSE-labeled Jurkat cells to recombinant human VCAM-1 (domains 1-3) coated plates; compounds as yielded by solid phase synthesis, purity about 40-90%; read-out: IC50
How it was run: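 CFSE-labelled Jurkat E6-1 cells in Tris buffer pH 7.4 with 2 mM MnCl2 were added to wells coated with insect-cell-expressed human VCAM-1 domains 1-3 (0.5 μg/ml coating solution); labelled cells were incubated for 30 min at 37 °C with the VLA-4 inhibitor.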

T1 sequence (P13612 34-1032): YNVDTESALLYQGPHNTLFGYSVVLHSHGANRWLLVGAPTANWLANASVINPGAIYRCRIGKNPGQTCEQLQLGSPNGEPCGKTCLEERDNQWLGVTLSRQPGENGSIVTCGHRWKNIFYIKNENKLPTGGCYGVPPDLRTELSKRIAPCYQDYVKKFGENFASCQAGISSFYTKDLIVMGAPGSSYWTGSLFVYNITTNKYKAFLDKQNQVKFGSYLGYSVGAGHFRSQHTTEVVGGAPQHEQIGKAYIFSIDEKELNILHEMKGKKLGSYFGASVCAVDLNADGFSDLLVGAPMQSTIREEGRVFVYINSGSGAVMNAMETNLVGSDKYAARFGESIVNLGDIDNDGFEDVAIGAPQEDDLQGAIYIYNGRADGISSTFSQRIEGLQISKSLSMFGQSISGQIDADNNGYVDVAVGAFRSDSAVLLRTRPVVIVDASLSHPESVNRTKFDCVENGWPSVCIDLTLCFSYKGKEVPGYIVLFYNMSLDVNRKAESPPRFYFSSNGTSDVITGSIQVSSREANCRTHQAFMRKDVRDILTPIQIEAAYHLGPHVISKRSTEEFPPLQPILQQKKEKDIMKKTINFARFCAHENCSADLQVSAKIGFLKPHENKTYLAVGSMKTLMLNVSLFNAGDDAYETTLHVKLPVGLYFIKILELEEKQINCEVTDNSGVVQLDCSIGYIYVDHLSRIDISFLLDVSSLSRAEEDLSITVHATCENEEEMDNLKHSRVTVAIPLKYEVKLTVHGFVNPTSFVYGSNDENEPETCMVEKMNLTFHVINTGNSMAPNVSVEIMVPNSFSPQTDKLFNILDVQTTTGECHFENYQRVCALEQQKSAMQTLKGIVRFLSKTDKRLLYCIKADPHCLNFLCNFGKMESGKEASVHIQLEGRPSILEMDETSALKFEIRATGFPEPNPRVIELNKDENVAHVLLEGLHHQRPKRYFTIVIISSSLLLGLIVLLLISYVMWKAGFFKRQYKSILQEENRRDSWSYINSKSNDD
T1 sequence (P05556 21-798): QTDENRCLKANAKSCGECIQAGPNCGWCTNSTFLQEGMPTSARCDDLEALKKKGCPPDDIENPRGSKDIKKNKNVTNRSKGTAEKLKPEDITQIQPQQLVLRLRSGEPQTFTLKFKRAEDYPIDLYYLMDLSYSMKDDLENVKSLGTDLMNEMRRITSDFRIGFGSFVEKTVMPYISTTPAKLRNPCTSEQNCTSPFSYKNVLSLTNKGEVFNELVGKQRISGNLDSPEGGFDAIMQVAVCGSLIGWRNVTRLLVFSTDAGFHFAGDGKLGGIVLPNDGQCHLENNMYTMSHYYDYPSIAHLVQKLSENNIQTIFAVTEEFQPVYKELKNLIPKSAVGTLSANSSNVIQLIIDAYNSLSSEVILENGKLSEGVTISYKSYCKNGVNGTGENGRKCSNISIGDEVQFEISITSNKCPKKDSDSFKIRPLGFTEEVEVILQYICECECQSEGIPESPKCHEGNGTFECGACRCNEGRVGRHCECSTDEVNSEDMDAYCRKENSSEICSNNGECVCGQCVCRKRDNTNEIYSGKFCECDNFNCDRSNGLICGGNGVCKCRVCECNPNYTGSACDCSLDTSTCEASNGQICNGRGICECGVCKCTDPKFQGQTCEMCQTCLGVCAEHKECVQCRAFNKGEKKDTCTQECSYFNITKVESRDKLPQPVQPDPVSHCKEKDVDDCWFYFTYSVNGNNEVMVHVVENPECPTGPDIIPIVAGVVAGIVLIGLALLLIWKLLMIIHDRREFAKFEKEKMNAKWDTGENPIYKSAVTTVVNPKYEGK

Structure (SMILES)	IC50
CN1CCN(C(=O)Nc2ccc(C[C@H](NC(=O)C3CCCN(c4ncnc(N5CCCCCC5)c4F)C3)C(=O)O)cc2)CC1 (stereo partly shown) [Example 5.20]	0.5 to 2 µM
O=C(N[C@@H](Cc1ccc(NC(=O)N2CCOCC2)cc1)C(=O)O)C1CCCN(c2ncnc(N3CCCCCC3)c2F)C1 (stereo partly shown) [Example 5.21]	0.5 to 2 µM
O=C(N[C@@H](Cc1ccc(NC(=O)N2CCOCC2)cc1)C(=O)O)C1CCCN(c2ncnc(NC3CCN(Cc4ccccc4)CC3)c2F)C1 (stereo partly shown) [Example 5.22]	2 to 10 µM
CN1CCN(C(=O)Nc2ccc(C[C@H](NC(=O)C3CCCN(c4ncnc(NC5CCCC5)c4F)C3)C(=O)O)cc2)CC1 (stereo partly shown) [Example 5.24]	2 to 10 µM
CN1CCN(C(=O)Nc2ccc(C[C@H](NC(=O)C3CCCN(c4ncnc(NCCc5ccccc5)c4F)C3)C(=O)O)cc2)CC1 (stereo partly shown) [Example 5.25]	0.5 to 2 µM
CN1CCN(C(=O)Nc2ccc(C[C@H](NC(=O)C3CCCN(c4ncnc(N5CCc6ccccc6C5)c4F)C3)C(=O)O)cc2)CC1 (stereo partly shown) [Example 5.27]	2 to 10 µM
CN1CCN(C(=O)Nc2ccc(C[C@H](NC(=O)C3CCCN(c4ncnc(NCc5cccnc5)c4F)C3)C(=O)O)cc2)CC1 (stereo partly shown) [Example 5.29]	2 to 10 µM
O=C(N[C@@H](Cc1ccc(NC(=O)N2CCN(c3ccccc3)CC2)cc1)C(=O)O)C1CCCN(c2ncnc(NCc3cccnc3)c2F)C1 (stereo partly shown) [Example 5.30]	0.5 to 2 µM
CN1CCN(C(=O)Nc2ccc(C[C@H](NC(=O)C3CCCN(c4ncnc(NCC5CCNCC5)c4F)C3)C(=O)O)cc2)CC1 (stereo partly shown) [Example 5.32]	0.5 to 2 µM
CN1CCN(C(=O)Nc2ccc(C[C@H](NC(=O)C3CCCN(c4ncnc(NCC5CCCCC5)c4F)C3)C(=O)O)cc2)CC1 (stereo partly shown) [Example 5.33]	2 to 10 µM
O=C(N[C@@H](Cc1ccc(NC(=O)N2CCN(c3ccccc3)CC2)cc1)C(=O)O)C1CCCN(c2ncnc(NCc3ccncc3)c2F)C1 (stereo partly shown) [Example 5.37]	0.5 to 2 µM
CN1CCN(c2ncnc(N3CCCC(C(=O)N[C@@H](Cc4ccc(NC(=O)N5CCc6ccccc6C5)cc4)C(=O)O)C3)c2F)CC1 (stereo partly shown) [Example 5.40]	0.5 to 2 µM
CC1CCCCN1c1ncnc(N2CCCC(C(=O)N[C@@H](Cc3ccc(NC(=O)N4CCc5ccccc5C4)cc3)C(=O)O)C2)c1F (stereo partly shown) [Example 5.41]	0.5 to 2 µM
Nc1ncnc(N2CCCC(C(=O)N[C@@H](Cc3ccc(NC(=O)N4CCN(c5ccccc5)CC4)cc3)C(=O)O)C2)c1F (stereo partly shown) [Example 5.42]	≤ 0.5 µM
CN(c1ncnc(N2CCCC(C(=O)N[C@@H](Cc3ccc(NC(=O)N4CCN(c5ccccc5)CC4)cc3)C(=O)O)C2)c1F)C1CCCCC1 (stereo partly shown) [Example 5.43]	0.5 to 2 µM
O=C(N[C@@H](Cc1ccc(NC(=O)N2CCc3ccccc3C2)cc1)C(=O)O)C1CCCN(c2ncnc(NCc3ccncc3)c2F)C1 (stereo partly shown) [Example 5.44]	0.5 to 2 µM
COCCN(C)c1ncnc(N2CCCC(C(=O)N[C@@H](Cc3ccc(NC(=O)N4CCN(c5ccccc5)CC4)cc3)C(=O)O)C2)c1F (stereo partly shown) [Example 5.46]	0.5 to 2 µM

The next lines start with the values.

IC50	Structure (SMILES)
0.5 to 2 µM	O=C(N[C@@H](Cc1ccc(NC(=O)N2CCN(c3ccccc3)CC2)cc1)C(=O)O)C1CCCN(c2ncnc(NC3CCN(Cc4ccccc4)CC3)c2F)C1 (stereo partly shown) [Example 5.23]
2 to 10 µM	O=C(N[C@@H](Cc1ccc(NC(=O)N2CCN(c3ccccc3)CC2)cc1)C(=O)O)C1CCCN(c2ncnc(NCCc3ccccc3)c2F)C1 (stereo partly shown) [Example 5.26]
0.5 to 2 µM	O=C(N[C@@H](Cc1ccc(NC(=O)N2CCOCC2)cc1)C(=O)O)C1CCCN(c2ncnc(NCc3cccnc3)c2F)C1 (stereo partly shown) [Example 5.28]
0.5 to 2 µM	CN1CCN(C(=O)Nc2ccc(C[C@H](NC(=O)C3CCCN(c4ncnc(NCc5ccncc5)c4F)C3)C(=O)O)cc2)CC1 (stereo partly shown) [Example 5.31]
≤ 0.5 µM	CN1CCN(C(=O)Nc2ccc(C[C@H](NC(=O)C3CCCN(c4ncnc(N)c4F)C3)C(=O)O)cc2)CC1 (stereo partly shown) [Example 5.34]
≤ 0.5 µM	O=C(N[C@@H](Cc1ccc(NC(=O)N2CCOCC2)cc1)C(=O)O)C1CCCN(c2ncnc(NCC3CCCCC3)c2F)C1 (stereo partly shown) [Example 5.35]
0.5 to 2 µM	CN(c1ncnc(N2CCCC(C(=O)N[C@@H](Cc3ccc(NC(=O)N4CCOCC4)cc3)C(=O)O)C2)c1F)C1CCCCC1 (stereo partly shown) [Example 5.36]
0.5 to 2 µM	CN(c1ncnc(N2CCCC(C(=O)N[C@@H](Cc3ccc(NC(=O)N4CCc5ccccc5C4)cc3)C(=O)O)C2)c1F)C1CCCCC1 (stereo partly shown) [Example 5.38]
0.5 to 2 µM	O=C(N[C@@H](Cc1ccc(NC(=O)N2CCN(c3ccccc3)CC2)cc1)C(=O)O)C1CCCN(c2ncnc(NCCc3ccccn3)c2F)C1 (stereo partly shown) [Example 5.39]
0.5 to 2 µM	CN(Cc1ccccc1)c1ncnc(N2CCCC(C(=O)N[C@@H](Cc3ccc(NC(=O)N4CCOCC4)cc3)C(=O)O)C2)c1F (stereo partly shown) [Example 5.45]
0.5 to 2 µM	O=C(N[C@@H](Cc1ccc(NC(=O)N2CCOCC2)cc1)C(=O)O)C1CCCN(c2ncnc(NCc3ccccn3)c2F)C1 (stereo partly shown) [Example 5.47]
